Results published in PubChem BioAssay AID2060620 (Molecular Pharmacology Branch, DTP, NCI, 2025).

System: 328373-195-R-J1-PDC complex spheroids, viability % test/control
Assay: Anticancer human tumor 328373-195-R-J1-PDC patient-derived head and neck squamous carcinoma cell line growth inhibition [CLK]
Conditions: for IC50: curve of first compound; for viability, T/C: stronger effect = lower value
Text: A high-throughput screen of multi-cell type tumor spheroids was designed to identify active combinations of […] and targeted small molecules. Complex spheroids include a stromal component modeled by human endothelial cells (HUVEC) and fibroblasts modeled by human mesenchymal stem cells (MSCs). The concentration ranges selected for each drug and investigational agent were based upon clinically achievable concentrations if the clinical Cmax of the agent was known.
Compounds. The drugs and investigational agents: cirtuvivint (SM08502; NSC835563), CC-671 (NSC850746), vemurafenib (NSC761431), tapotoclax (NSC804041), sotorasib (NSC818433), adagrasib (NSC831453), MRTX-1133 (NSC836407), BAY2416964 (NSC825713), copanlisib (NSC816437), inavolisib (NSC800729), abemaciclib (NSC768073), osimertinib (NSC779217), entinostat (NSC756642), eltanexor (KPT-8602, NSC794443), venetoclax (NSC766270), ceralasertib (NSC777638), bortezomib (NSC756655), olaparib (NSC753686), talazoparib (NSC767125), alisertib (NSC759677), peposertib (NSC802822), gemcitabine (NSC613327), 5-fluorouracil (NSC19893), SN-38 (NSC673596), oxaliplatin (NSC266046), paclitaxel (NSC125973), and doxorubicin (NSC123127), were obtained from the National Cancer Institute (NCI) Developmental Therapeutics Program Chemical Repository. The FDA-approved anticancer drug set is available from the Developmental Therapeutics Program at https://dtp.cancer.gov/organization/dscb/obtaining/available plates.htm. […] The stock solutions were prepared in dimethyl sulfoxide (DMSO, Sigma-Aldrich, St. Louis, MO, cat. D2650), except for the platinum complexes which were prepared in saline (Quality Biological, Gaithersburg, MD, cat. 114-055-101), at 800-fold the tested concentration and stored at -70 degrees C prior to their use. All drugs and investigational agents were tested over a range starting from a high concentration at or near the clinical Cmax and decreasing in half-log increments. If the clinical Cmax for an agent had not been determined, the highest concentration tested was 10 microM.
Cell Culture. All cells were maintained in an incubator at 37 degrees C and 5% CO2 with 95% humidity. The PDC lines were cultured according to standard operating procedures established by the NCI PDMR. Briefly, all PDCs were thawed and cultured in Matrigel-coated flasks prepared with a working solution of 1X Ham's F-12 nutrient mix, without supplementation (Invitrogen, Waltham, MA, cat. 11765054), 100 U/mL penicillin-streptomycin (Invitrogen, cat. 15140122), and 2.5% Matrigel (Corning Inc., Corning, NY, cat. 354248) for the first three passages. The 947758-054-R-J2-PDC line was cultured in 6B/Colon 1A media, which includes advanced DMEM/F-12 (Thermo Fisher Scientific, cat. 12634028), 10 mM HEPES (Thermo Fisher Scientific, cat. 15630080), 1X GlutaMAX supplement (Thermo Fisher Scientific, cat. 35050061), 0.1 mg/mL primocin (InvivoGen, cat. ant-pm-2), 10% defined fetal bovine serum, heat inactivated (HyClone Laboratories Inc., cat. SH30070.03HI), 1.25 mM N-Acetyl-L-cysteine (Sigma-Aldrich, cat. A9165), 10 mM nicotinamide (Sigma-Aldrich, cat. N0636), 1X B-27 supplement (Thermo Fisher Scientific, cat. 17504044), 1X N-2 supplement (Thermo Fisher Scientific, cat. 17502048), and 10 microM Y-27632 dihydrochloride (Tocris Bioscience, cat. 1254). The 876862-298-R-J1-PDC was cultured in 6E media, which includes all 6B/Colon 1A media components plus 50% L-WRN conditioned media (ATCC, cat. CRL-3276), 50 ng/mL recombinant human EGF recombinant protein (hEGF; Thermo Fisher Scientific, cat. PHG0311), 10 ng/mL recombinant human fibroblast growth factor 10 (hGFG-10; PeproTech, cat. 100-26), 1 ng/mL recombinant human fibroblast growth factor 2 (hFGF-2; PeproTech, cat. 100-18B), and 1 µM prostaglandin E2 (PGE2; Tocris, cat. 2296). The 227483-062-R1-J1-PDC line was cultured in Panc media, containing all 6E components except hFGF-2, with the addition of 500 nM SB-431542 (Selleckchem, cat. S1067) and 10 nM gastrin (Tocris, cat. 3006). […]

[1] = second compound 0.0316 µM, first compound 0.0316 µM
[2] = second compound 0.0316 µM, first compound 0.1 µM
[3] = second compound 0.0316 µM, first compound 0.316 µM
[4] = second compound 0.0316 µM, first compound 1 µM
[5] = second compound 0.1 µM, first compound 0.0316 µM
[6] = second compound 0.1 µM, first compound 0.1 µM
[7] = second compound 0.1 µM, first compound 0.316 µM
[8] = second compound 0.1 µM, first compound 1 µM
[9] = second compound 0.316 µM, first compound 0.0316 µM
[10] = second compound 0.316 µM, first compound 0.1 µM
[11] = second compound 0.316 µM, first compound 0.316 µM
[12] = second compound 0.316 µM, first compound 1 µM
[13] = second compound 1 µM, first compound 0.0316 µM
[14] = second compound 1 µM, first compound 0.1 µM
[15] = second compound 1 µM, first compound 0.316 µM
[16] = second compound 1 µM, first compound 1 µM
[17] = second compound 3.16 µM, first compound 0.0316 µM
[18] = second compound 3.16 µM, first compound 0.1 µM
[19] = second compound 3.16 µM, first compound 0.316 µM
[20] = second compound 3.16 µM, first compound 1 µM
[21] = second compound 10 µM, first compound 0.0316 µM
[22] = second compound 10 µM, first compound 0.1 µM
[23] = second compound 10 µM, first compound 0.316 µM
[24] = second compound 10 µM, first compound 1 µM
[25] = second compound 0.0316 µM, first compound 0.00316 µM
[26] = second compound 0.0316 µM, first compound 0.01 µM
[27] = second compound 0.1 µM, first compound 0.00316 µM
[28] = second compound 0.1 µM, first compound 0.01 µM
[29] = second compound 0.316 µM, first compound 0.00316 µM
[30] = second compound 0.316 µM, first compound 0.01 µM
[31] = second compound 1 µM, first compound 0.00316 µM
[32] = second compound 1 µM, first compound 0.01 µM
[33] = second compound 3.16 µM, first compound 0.00316 µM
[34] = second compound 3.16 µM, first compound 0.01 µM
[35] = second compound 10 µM, first compound 0.00316 µM
[36] = second compound 10 µM, first compound 0.01 µM
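Further: spheroids exposed to the agents for 7 days.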

## CC(Nc1ccc2c(c1)OCCn1cc(N3C(=O)OCC3C(F)F)nc1-2)C(N)=O (stereo unspecified) + CN1CCN(c2cc(C(=O)Nc3cc4cc(-c5cnn(C)c5)ccc4cn3)ccn2)CC1
Second compound 0.0316 µM
  IC50: > 10 µM
Second compound 0.1 µM
  IC50: 2.42 µM
Second compound 0.316 µM
  IC50: < 0.0316 µM
Second compound 1 µM
  IC50: < 0.0316 µM
Second compound 3.16 µM
  IC50: < 0.0316 µM
Second compound 10 µM
  IC50: < 0.0316 µM
[1]
  viability, T/C: 90.4%
[2]
  viability, T/C: 88.7%
[3]
  viability, T/C: 87.1%
[4]
  viability, T/C: 78.4%
Second compound 0.0316 µM, first compound 3.16 µM
  viability, T/C: 58.1%
Second compound 0.0316 µM, first compound 10 µM
  viability, T/C: 53.7%
[5]
  viability, T/C: 75.8%
[6]
  viability, T/C: 74.3%
[7]
  viability, T/C: 73.7%
[8]
  viability, T/C: 67.2%
Second compound 0.1 µM, first compound 3.16 µM
  viability, T/C: 44.2%
Second compound 0.1 µM, first compound 10 µM
  viability, T/C: 45.4%
[9]
  viability, T/C: 34.3%
[10]
  viability, T/C: 28.9%
[11]
  viability, T/C: 28.8%
[12]
  viability, T/C: 23.8%
Second compound 0.316 µM, first compound 3.16 µM
  viability, T/C: 17.7%
Second compound 0.316 µM, first compound 10 µM
  viability, T/C: 17.5%
[13]
  viability, T/C: 0.25%
[14]
  viability, T/C: 0.23%
[15]
  viability, T/C: 1.16%
[16]
  viability, T/C: 0.41%
Second compound 1 µM, first compound 3.16 µM
  viability, T/C: 1.23%
Second compound 1 µM, first compound 10 µM
  viability, T/C: 1.08%
[17]
  viability, T/C: 1.31%
[18]
  viability, T/C: 0.16%
[19]
  viability, T/C: 1.05%
[20]
  viability, T/C: 0.11%
Second compound 3.16 µM, first compound 3.16 µM
  viability, T/C: 2.46%
Second compound 3.16 µM, first compound 10 µM
  viability, T/C: 2.43%
[21]
  viability, T/C: 0.1%
[22]
  viability, T/C: 1.44%
[23]
  viability, T/C: 0.26%
[24]
  viability, T/C: 0.2%
Second compound 10 µM, first compound 3.16 µM
  viability, T/C: 2.32%
Second compound 10 µM, first compound 10 µM
  viability, T/C: 1.83%

## CCN1CCN(Cc2ccc(Nc3ncc(F)c(-c4cc(F)c5nc(C)n(C(C)C)c5c4)n3)nc2)CC1 + CN1CCN(c2cc(C(=O)Nc3cc4cc(-c5cnn(C)c5)ccc4cn3)ccn2)CC1
Second compound 0.0316 µM
  IC50: > 1 µM
Second compound 0.1 µM
  IC50: > 1 µM
Second compound 0.316 µM
  IC50: < 0.00316 µM
Second compound 1 µM
  IC50: < 0.00316 µM
Second compound 3.16 µM
  IC50: < 0.00316 µM
Second compound 10 µM
  IC50: < 0.00316 µM
[25]
  viability, T/C: 94.7%
[26]
  viability, T/C: 95.9%
[1]
  viability, T/C: 103%
[2]
  viability, T/C: 79.5%
[3]
  viability, T/C: 71.3%
[4]
  viability, T/C: 51.2%
[27]
  viability, T/C: 86.5%
[28]
  viability, T/C: 84.8%
[5]
  viability, T/C: 88.5%
[6]
  viability, T/C: 69.3%
[7]
  viability, T/C: 63%
[8]
  viability, T/C: 53.3%
[29]
  viability, T/C: 29.9%
[30]
  viability, T/C: 32.9%
[9]
  viability, T/C: 31.6%
[10]
  viability, T/C: 26.5%
[11]
  viability, T/C: 24.2%
[12]
  viability, T/C: 18.5%
[31]
  viability, T/C: 0.16%
[32]
  viability, T/C: 2.17%
[13]
  viability, T/C: 0.34%
[14]
  viability, T/C: 1.1%
[15]
  viability, T/C: 0.85%
[16]
  viability, T/C: 0.24%
[33]
  viability, T/C: 0.11%
[34]
  viability, T/C: 1.57%
[17]
  viability, T/C: 1.92%
[18]
  viability, T/C: 0.15%
[19]
  viability, T/C: 1.14%
[20]
  viability, T/C: 0.2%
[35]
  viability, T/C: 0.37%
[36]
  viability, T/C: 0.56%
[21]
  viability, T/C: 3.2%
[22]
  viability, T/C: 0.17%
[23]
  viability, T/C: 1.94%
[24]
  viability, T/C: 1.71%

## COc1c(OCCCN2CCOCC2)ccc2c3n(c(=NC(=O)c4cnc(N)nc4)nc12)CCN3 + CN1CCN(c2cc(C(=O)Nc3cc4cc(-c5cnn(C)c5)ccc4cn3)ccn2)CC1
Second compound 0.0316 µM
  IC50: 0.126 µM
Second compound 0.1 µM
  IC50: 0.0799 µM
Second compound 0.316 µM
  IC50: < 0.00316 µM
Second compound 1 µM
  IC50: < 0.00316 µM
Second compound 3.16 µM
  IC50: < 0.00316 µM
Second compound 10 µM
  IC50: < 0.00316 µM
[25]
  viability, T/C: 95.8%
[26]
  viability, T/C: 93.9%
[1]
  viability, T/C: 77.9%
[2]
  viability, T/C: 52.7%
[3]
  viability, T/C: 31.9%
[4]
  viability, T/C: 9.52%
[27]
  viability, T/C: 71.7%
[28]
  viability, T/C: 77.8%
[5]
  viability, T/C: 63.5%
[6]
  viability, T/C: 46.4%
[7]
  viability, T/C: 23.2%
[8]
  viability, T/C: 10.4%
[29]
  viability, T/C: 32.5%
[30]
  viability, T/C: 35.3%
[9]
  viability, T/C: 20.4%
[10]
  viability, T/C: 17.1%
[11]
  viability, T/C: 7.35%
[12]
  viability, T/C: 4.17%
[31]
  viability, T/C: 0.2%
[32]
  viability, T/C: 1.02%
[13]
  viability, T/C: 0.29%
[14]
  viability, T/C: 0.33%
[15]
  viability, T/C: 0.18%
[16]
  viability, T/C: 4.25%
[33]
  viability, T/C: 0.08%
[34]
  viability, T/C: 3.15%
[17]
  viability, T/C: 0.9%
[18]
  viability, T/C: 0.09%
[19]
  viability, T/C: 2.94%
[20]
  viability, T/C: 0.12%
[35]
  viability, T/C: 0.62%
[36]
  viability, T/C: 2.77%
[21]
  viability, T/C: 0.15%
[22]
  viability, T/C: 0.14%
[23]
  viability, T/C: 1.52%
[24]
  viability, T/C: 1.72%
